Data from US12227500B2, “Substituted pyrrolo[2,3-b]pyridines for suppressing toxic endoplasmic reticulum stress” (THE TRUSTEES OF COLUMBIA UNIVERSITY IN THE CITY OF NEW YORK, priority 2018, dated 2025).
Read-outs that look alike come from different tables or passages of the source.

What was measured:
Test in all cases: Radiolabeled ATP kinase assay, panel of 371 kinases (Table S6)
Type in all cases: biochemical
[1] = molecular target: T1, panel of 371 human kinases (Homo sapiens, UniProt Q9BZL6); details: PKD2/PRKD2; 0.1 μM; 10 μM ATP; read-out: % Enzyme Activity (relative to DMSO controls)
T1 construct: purchased Reaction Biology Corp
From the text: (§1) ; FIG. 38C). […]. Further targeted analyses, such as genetic knock-down or knock-out, may be warranted to parse the role of these additional kinases in our model of neurodegeneration.

[2] = molecular target: T2, panel of 371 human kinases (Homo sapiens, UniProt P42681); details: TXK; 0.1 μM; 10 μM ATP; read-out: % Enzyme Activity (relative to DMSO controls)
T2 construct: purchased Reaction Biology Corp
From the text: as §1

[3] = molecular target: T3, panel of 371 human kinases (Homo sapiens, UniProt P12931); details: c-Src; 0.1 μM; 10 μM ATP; read-out: % Enzyme Activity (relative to DMSO controls)
T3 construct: purchased Reaction Biology Corp
T3 sequence (P12931 whole entry): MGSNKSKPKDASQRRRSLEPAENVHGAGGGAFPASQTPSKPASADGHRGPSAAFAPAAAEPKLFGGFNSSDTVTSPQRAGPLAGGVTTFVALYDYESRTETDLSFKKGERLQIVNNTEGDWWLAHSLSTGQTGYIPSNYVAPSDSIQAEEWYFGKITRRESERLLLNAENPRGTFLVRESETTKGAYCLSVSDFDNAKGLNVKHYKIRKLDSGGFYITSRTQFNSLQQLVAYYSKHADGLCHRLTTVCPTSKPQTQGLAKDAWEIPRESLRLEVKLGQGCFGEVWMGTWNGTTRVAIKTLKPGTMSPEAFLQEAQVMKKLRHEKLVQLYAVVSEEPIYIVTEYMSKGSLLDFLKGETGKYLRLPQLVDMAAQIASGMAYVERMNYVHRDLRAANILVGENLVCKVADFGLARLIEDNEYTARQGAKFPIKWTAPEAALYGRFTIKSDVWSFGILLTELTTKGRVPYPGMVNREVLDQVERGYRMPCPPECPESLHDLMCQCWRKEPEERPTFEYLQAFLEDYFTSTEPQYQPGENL
From the text: as §1

[4] = molecular target: T4, panel of 371 human kinases (Homo sapiens, UniProt O00311); details: CDC7/DBF4; 0.1 μM; 10 μM ATP; read-out: % Enzyme Activity (relative to DMSO controls)
T4 construct: purchased Reaction Biology Corp
T4 sequence (O00311 whole entry): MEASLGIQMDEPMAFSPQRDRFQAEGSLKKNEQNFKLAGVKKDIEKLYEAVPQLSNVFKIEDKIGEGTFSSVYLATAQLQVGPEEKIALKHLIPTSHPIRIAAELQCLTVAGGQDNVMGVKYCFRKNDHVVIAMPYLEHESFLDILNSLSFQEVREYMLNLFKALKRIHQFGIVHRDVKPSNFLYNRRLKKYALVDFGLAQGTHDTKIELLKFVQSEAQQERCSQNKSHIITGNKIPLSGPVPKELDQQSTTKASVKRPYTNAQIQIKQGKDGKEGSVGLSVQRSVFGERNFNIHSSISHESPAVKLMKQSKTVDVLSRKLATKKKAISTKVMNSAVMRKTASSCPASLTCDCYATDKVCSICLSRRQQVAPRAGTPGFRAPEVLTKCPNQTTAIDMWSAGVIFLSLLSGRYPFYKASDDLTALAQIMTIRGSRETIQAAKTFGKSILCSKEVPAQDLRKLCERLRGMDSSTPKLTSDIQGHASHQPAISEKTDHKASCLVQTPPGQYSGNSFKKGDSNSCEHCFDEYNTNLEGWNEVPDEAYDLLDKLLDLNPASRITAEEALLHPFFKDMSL
From the text: as §1

[5] = molecular target: T5, panel of 371 human kinases (Homo sapiens, UniProt Q86SG6); details: NEK8; 0.1 μM; 10 μM ATP; read-out: % Enzyme Activity (relative to DMSO controls)
T5 construct: purchased Reaction Biology Corp
T5 sequence (Q86SG6 whole entry): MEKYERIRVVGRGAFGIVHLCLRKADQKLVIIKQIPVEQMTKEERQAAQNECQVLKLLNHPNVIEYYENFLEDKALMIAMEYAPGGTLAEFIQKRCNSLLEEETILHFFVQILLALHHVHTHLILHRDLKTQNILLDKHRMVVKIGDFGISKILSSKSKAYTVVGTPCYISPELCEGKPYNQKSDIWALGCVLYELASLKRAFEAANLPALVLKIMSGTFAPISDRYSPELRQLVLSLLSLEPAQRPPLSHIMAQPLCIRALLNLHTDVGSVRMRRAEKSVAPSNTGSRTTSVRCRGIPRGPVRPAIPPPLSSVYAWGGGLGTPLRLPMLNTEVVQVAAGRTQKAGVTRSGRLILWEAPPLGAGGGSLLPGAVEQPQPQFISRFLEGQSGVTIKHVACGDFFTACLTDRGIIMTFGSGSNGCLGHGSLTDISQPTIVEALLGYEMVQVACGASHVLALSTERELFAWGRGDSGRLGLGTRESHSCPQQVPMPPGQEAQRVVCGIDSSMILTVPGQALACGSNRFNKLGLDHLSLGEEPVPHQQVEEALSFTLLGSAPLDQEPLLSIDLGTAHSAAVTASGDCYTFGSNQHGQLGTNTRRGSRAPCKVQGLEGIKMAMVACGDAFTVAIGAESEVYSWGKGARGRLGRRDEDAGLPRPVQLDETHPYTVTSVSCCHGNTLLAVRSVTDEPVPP
From the text: as §1

[6] = molecular target: T6, panel of 371 human kinases (Homo sapiens, UniProt Q8TD08); details: ERK7/MAPK15; 0.1 μM; 10 μM ATP; read-out: % Enzyme Activity (relative to DMSO controls)
T6 construct: purchased Reaction Biology Corp
From the text: as §1

[7] = molecular target: T7, panel of 371 human kinases (Homo sapiens, UniProt Q96GD4); details: Aurora B; 0.1 μM; 10 μM ATP; read-out: % Enzyme Activity (relative to DMSO controls)
T7 construct: purchased Reaction Biology Corp
T7 sequence (Q96GD4 whole entry): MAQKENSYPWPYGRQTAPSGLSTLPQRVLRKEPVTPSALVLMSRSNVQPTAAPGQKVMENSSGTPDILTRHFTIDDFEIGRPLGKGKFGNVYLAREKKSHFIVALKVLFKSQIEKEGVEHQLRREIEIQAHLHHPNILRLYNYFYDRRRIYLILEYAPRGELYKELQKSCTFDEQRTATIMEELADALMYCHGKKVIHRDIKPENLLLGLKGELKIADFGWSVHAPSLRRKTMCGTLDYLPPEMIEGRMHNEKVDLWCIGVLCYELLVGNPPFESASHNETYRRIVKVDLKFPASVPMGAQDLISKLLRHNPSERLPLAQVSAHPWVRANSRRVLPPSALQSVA
From the text: as §1

[8] = molecular target: T8, panel of 371 human kinases (Homo sapiens, UniProt P32298); details: GRK4; 0.1 μM; 10 μM ATP; read-out: % Enzyme Activity (relative to DMSO controls)
T8 construct: purchased Reaction Biology Corp
T8 sequence (P32298 whole entry): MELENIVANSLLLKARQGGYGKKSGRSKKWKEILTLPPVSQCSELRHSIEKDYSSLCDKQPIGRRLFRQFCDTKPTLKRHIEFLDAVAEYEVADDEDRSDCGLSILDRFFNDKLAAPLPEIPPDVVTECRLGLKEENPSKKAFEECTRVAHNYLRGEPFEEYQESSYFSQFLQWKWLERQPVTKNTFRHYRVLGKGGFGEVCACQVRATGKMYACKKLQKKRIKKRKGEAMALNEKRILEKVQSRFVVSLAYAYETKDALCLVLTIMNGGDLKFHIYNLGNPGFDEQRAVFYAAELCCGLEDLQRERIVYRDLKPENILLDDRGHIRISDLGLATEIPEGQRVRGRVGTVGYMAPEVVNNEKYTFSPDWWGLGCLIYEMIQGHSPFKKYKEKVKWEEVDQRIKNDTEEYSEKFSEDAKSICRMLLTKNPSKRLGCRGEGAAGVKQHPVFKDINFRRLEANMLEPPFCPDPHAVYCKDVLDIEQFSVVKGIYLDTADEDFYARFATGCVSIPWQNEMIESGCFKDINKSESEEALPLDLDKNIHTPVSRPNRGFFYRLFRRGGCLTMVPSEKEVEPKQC
From the text: as §1

[9] = molecular target: T9, panel of 371 human kinases (Homo sapiens, UniProt Q9H1R3); details: MLCK2/MYLK2; 0.1 μM; 10 μM ATP; read-out: % Enzyme Activity (relative to DMSO controls)
T9 construct: purchased Reaction Biology Corp
T9 sequence (Q9H1R3 whole entry): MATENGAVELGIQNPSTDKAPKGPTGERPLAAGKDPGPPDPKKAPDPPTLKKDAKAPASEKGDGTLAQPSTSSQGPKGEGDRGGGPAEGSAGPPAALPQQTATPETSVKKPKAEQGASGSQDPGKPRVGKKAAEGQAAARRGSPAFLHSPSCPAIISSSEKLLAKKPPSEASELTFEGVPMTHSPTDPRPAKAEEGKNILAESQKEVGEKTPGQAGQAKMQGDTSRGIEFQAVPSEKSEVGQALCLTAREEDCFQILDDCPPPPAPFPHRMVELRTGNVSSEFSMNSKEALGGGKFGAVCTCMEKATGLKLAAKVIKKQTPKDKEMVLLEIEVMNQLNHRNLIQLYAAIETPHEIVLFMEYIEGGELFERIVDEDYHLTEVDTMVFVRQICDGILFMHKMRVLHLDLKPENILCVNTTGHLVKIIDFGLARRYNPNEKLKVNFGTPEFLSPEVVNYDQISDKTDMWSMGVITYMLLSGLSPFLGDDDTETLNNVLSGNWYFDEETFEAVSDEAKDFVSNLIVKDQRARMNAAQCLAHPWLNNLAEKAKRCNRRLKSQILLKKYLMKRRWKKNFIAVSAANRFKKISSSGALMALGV
From the text: as §1

[10] = molecular target: T10, panel of 371 human kinases (Homo sapiens, UniProt P07332); details: FES/FPS; 0.1 μM; 10 μM ATP; read-out: % Enzyme Activity (relative to DMSO controls)
T10 construct: purchased Reaction Biology Corp
From the text: as §1

[11] = molecular target: T11, panel of 371 human kinases (Homo sapiens, UniProt Q99759); details: MEKK3; 0.1 μM; 10 μM ATP; read-out: % Enzyme Activity (relative to DMSO controls)
T11 construct: purchased Reaction Biology Corp
From the text: as §1

[12] = molecular target: T12, panel of 371 human kinases (Homo sapiens, UniProt Q86UX6); details: STK32C/YANK3; 0.1 μM; 10 μM ATP; read-out: % Enzyme Activity (relative to DMSO controls)
T12 construct: purchased Reaction Biology Corp
T12 sequence (Q86UX6 whole entry): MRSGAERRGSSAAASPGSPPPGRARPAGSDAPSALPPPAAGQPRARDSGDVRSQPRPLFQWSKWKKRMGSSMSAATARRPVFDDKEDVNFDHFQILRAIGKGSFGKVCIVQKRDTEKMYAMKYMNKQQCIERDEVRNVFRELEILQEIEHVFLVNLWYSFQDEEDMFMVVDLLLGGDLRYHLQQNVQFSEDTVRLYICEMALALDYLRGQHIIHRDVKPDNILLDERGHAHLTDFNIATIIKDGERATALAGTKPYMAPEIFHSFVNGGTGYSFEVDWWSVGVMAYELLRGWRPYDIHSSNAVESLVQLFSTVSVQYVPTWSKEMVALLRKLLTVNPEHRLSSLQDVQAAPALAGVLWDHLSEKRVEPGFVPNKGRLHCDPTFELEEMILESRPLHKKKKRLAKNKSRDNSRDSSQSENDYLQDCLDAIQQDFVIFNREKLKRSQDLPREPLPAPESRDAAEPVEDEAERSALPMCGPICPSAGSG
From the text: as §1

[13] = molecular target: T13, panel of 371 human kinases (Homo sapiens, UniProt P10398); details: ARAF; 0.1 μM; 10 μM ATP; read-out: % Enzyme Activity (relative to DMSO controls)
T13 construct: purchased Reaction Biology Corp
From the text: as §1

[14] = molecular target: T14, panel of 371 human kinases (Homo sapiens, UniProt Q32MK0); details: MYLK3; 0.1 μM; 10 μM ATP; read-out: % Enzyme Activity (relative to DMSO controls)
T14 construct: purchased Reaction Biology Corp
From the text: as §1

[15] = molecular target: T15, panel of 371 human kinases (Homo sapiens, UniProt P49759); details: CLK1; 0.1 μM; 10 μM ATP; read-out: % Enzyme Activity (relative to DMSO controls)
T15 construct: purchased Reaction Biology Corp
T15 sequence (P49759 whole entry): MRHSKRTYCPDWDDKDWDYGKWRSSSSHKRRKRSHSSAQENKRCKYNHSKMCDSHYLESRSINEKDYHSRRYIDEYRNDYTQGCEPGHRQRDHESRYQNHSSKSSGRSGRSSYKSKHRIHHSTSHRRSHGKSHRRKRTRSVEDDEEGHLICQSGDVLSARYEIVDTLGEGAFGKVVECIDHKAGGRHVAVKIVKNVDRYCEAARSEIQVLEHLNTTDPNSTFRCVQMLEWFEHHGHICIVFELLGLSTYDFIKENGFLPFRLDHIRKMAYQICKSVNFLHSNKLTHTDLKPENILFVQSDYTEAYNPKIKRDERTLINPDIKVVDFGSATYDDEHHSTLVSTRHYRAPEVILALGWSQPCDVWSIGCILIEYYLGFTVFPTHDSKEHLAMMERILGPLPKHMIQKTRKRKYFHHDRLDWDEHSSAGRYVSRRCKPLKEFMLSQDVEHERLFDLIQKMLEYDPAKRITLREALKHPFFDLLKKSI
From the text: as §1

[16] = molecular target: T16, panel of 371 human kinases (Homo sapiens, UniProt Q9UKI8); details: TLK1; 0.1 μM; 10 μM ATP; read-out: % Enzyme Activity (relative to DMSO controls)
T16 construct: purchased Reaction Biology Corp
From the text: as §1

[17] = molecular target: T17, panel of 371 human kinases (Homo sapiens, UniProt Q9Y2K2); details: SIK3; 0.1 μM; 10 μM ATP; read-out: % Enzyme Activity (relative to DMSO controls)
T17 construct: purchased Reaction Biology Corp
From the text: as §1

[18] = molecular target: T18, panel of 371 human kinases (Homo sapiens, UniProt P53779); details: JNK3; 0.1 μM; 10 μM ATP; read-out: % Enzyme Activity (relative to DMSO controls)
T18 construct: purchased Reaction Biology Corp
From the text: as §1

[19] = molecular target: T19, panel of 371 human kinases (Homo sapiens, UniProt O94921); details: CDK14/cyclin Y (PFTK1); 0.1 μM; 10 μM ATP; read-out: % Enzyme Activity (relative to DMSO controls)
T19 construct: purchased Reaction Biology Corp
From the text: as §1

[20] = molecular target: T20, panel of 371 human kinases (Homo sapiens, UniProt Q9P1W9); details: PIM2; 0.1 μM; 10 μM ATP; read-out: % Enzyme Activity (relative to DMSO controls)
T20 construct: purchased Reaction Biology Corp
T20 sequence (Q9P1W9 whole entry): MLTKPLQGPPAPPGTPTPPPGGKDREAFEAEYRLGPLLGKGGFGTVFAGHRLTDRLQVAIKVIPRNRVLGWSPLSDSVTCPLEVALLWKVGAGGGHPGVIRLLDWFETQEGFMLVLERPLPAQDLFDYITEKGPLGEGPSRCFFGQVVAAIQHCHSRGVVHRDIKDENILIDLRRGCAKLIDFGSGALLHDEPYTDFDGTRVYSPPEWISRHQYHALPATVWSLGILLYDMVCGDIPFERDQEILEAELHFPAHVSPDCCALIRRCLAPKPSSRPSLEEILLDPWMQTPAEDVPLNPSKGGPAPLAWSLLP
From the text: as §1

[21] = molecular target: T21, panel of 371 human kinases (Homo sapiens, UniProt Q6P3R8); details: NEK5; 0.1 μM; 10 μM ATP; read-out: % Enzyme Activity (relative to DMSO controls)
T21 construct: purchased Reaction Biology Corp
From the text: as §1

[22] = molecular target: T22, panel of 371 human kinases (Homo sapiens, UniProt Q9UBS0); details: p70S6Kb/RPS6KB2; 0.1 μM; 10 μM ATP; read-out: % Enzyme Activity (relative to DMSO controls)
T22 construct: purchased Reaction Biology Corp
From the text: as §1

[23] = molecular target: T23, panel of 371 human kinases (Homo sapiens, UniProt P08581); details: c-MET; 0.1 μM; 10 μM ATP; read-out: % Enzyme Activity (relative to DMSO controls)
T23 construct: purchased Reaction Biology Corp
From the text: as §1

[24] = molecular target: T24, panel of 371 human kinases (Homo sapiens, UniProt Q00535); details: 0.1 μM, 10 μM ATP, read-out: % Enzyme Activity (relative to DMSO controls)
T24 construct: purchased Reaction Biology Corp
T24 sequence (Q00535 whole entry): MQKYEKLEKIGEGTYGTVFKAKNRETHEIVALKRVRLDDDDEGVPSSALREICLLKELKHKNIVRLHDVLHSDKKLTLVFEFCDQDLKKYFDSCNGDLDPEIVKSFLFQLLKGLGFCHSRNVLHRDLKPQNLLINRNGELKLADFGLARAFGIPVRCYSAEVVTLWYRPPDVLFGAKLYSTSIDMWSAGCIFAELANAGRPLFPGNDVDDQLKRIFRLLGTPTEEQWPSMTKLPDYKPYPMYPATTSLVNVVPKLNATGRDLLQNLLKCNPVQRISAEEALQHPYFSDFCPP
From the text: as §1

| SMILES | remaining activity at 0.1 µM [1] [%] | remaining activity at 0.1 µM [2] [%] | remaining activity at 0.1 µM [3] [%] | remaining activity at 0.1 µM [4] [%] | remaining activity at 0.1 µM [5] [%] | remaining activity at 0.1 µM [6] [%] | remaining activity at 0.1 µM [7] [%] | remaining activity at 0.1 µM [8] [%] | remaining activity at 0.1 µM [9] [%] | remaining activity at 0.1 µM [10] [%] | remaining activity at 0.1 µM [11] [%] | remaining activity at 0.1 µM [12] [%] | remaining activity at 0.1 µM [13] [%] | remaining activity at 0.1 µM [14] [%] | remaining activity at 0.1 µM [15] [%] | remaining activity at 0.1 µM [16] [%] | remaining activity at 0.1 µM [17] [%] | remaining activity at 0.1 µM [18] [%] | remaining activity at 0.1 µM [19] [%] | remaining activity at 0.1 µM [20] [%] | other results |
| --- | --- | --- | --- | --- | --- | --- | --- | --- | --- | --- | --- | --- | --- | --- | --- | --- | --- | --- | --- | --- | --- |
| CN1CCN(Cc2ccc(-c3cnc4[nH]cc(-c5ccc6[nH]ccc6c5)c4c3)cc2)CC1 [Compound 1, 3-(1H-Indol-5-yl)-5-(4-((4-methylpiperazin-1-yl)methyl)phenyl)-1H-pyrrolo[2,3-b]pyridine, reference compound] | 23.2 | 85.3 | 86 | 100 | 99.1 | 109 | 103 | 106 | 66 | 68.2 | 91.6 | 98.3 | 108 | 109 | 58.8 | 102 | 75.5 | 89.5 | 110 | 106 | remaining activity at 0.1 µM [21]: 87.1%; remaining activity at 0.1 µM [22]: 107%; remaining activity at 0.1 µM [23]: 87.8%; remaining activity at 0.1 µM ([24]; CDK5/p25): 79.7%; remaining activity at 0.1 µM ([24]; CDK5/p35): 81.3% |
| OCCN1CCN(Cc2ccc(-c3cnc4[nH]cc(-c5cccc(Cl)c5)c4c3)cc2)CC1 [Compound 12k, 2-(4-(4-(3-(3-Chlorophenyl)-1H-pyrrolo[2,3-b]pyridin-5-yl)benzyl)piperazin-1-yl)ethan-1-ol] | 9.36 | 87 | 88.1 | 98.3 | 97.9 | 90.4 | 82.6 | 106 | 78.9 | 77.9 | 94.6 | 93 | 96.6 | 96.7 | 68.6 | 102 | 92.3 | 94.4 | 94.9 | 106 | remaining activity at 0.1 µM [21]: 92.4%; remaining activity at 0.1 µM [22]: 95%; remaining activity at 0.1 µM [23]: 88.2%; remaining activity at 0.1 µM ([24]; CDK5/p25): 75.9%; remaining activity at 0.1 µM ([24]; CDK5/p35): 79.2% |
